Like-named read-outs stand apart in the source and are kept apart here.
Key:
[1] = system: NCI-H1373 tumor; assay: Antitumor effect in NCI-H1373 tumor-bearing mouse; type: in vivo; conditions: 10 mg/kg orally once a day for 13 or 14 days
Protocol: Evaluation of Antitumor Effect in Human KRAS G12C Mutation Positive Non-Small Cell Lung Cancer Strain NCI-H1373 Tumor-Bearing Mouse
A cell suspension prepared per 3.0×10^7/mL by suspending NCI-H1373 cells in PBS, an equivalent amount of Matrigel (Becton, Dickinson and Company) was added thereto, and the cell suspension was subcutaneously planted in a volume of 100 μL to male nude mice of 4-5 weeks old (CAnN.Cg-Foxnlnu/CrlCrlj (nu/nu), Charles River Laboratories Japan, Inc.). Approximately 2 weeks after planting, groups were divided so that tumor volume and body weight between the groups were almost equivalent to each other, and administration of the test compound was started from the next day. The test was conducted with five mice in a solvent group and five mice in a test compound administration group, and an aqueous solution of 6% 2-hydroxypropyl-β-cyclodextrin (Sigma-Aldrich Co. LLC) was orally administered to the solvent group and an aqueous solution of 6% 2-hydroxypropyl-β-cyclodextrin which the test compound (10 or 40 mg/kg) was mixed was orally administered to the test compound administration group. The administration was performed once a day for 13 or 14 days, and tumor diameter and volume were measured twice a week. For calculation of tumor volume, the following formula was used. [tumor volume (mm^3)]=[major diameter (mm) of tumor]×[minor diameter (mm) of tumor]^2×0.5
The tumor growth inhibition rate (%) by the test compound was calculated by setting the tumor volume of the test compound administration group on the day before the administration started as 100% inhibition, and the tumor volume of the solvent group on the last day of administration as 0% inhibition. In addition, in a case where the tumor volume of the test compound administration group was lower than the tumor volume on the day before the administration started, the tumor regression rate (%) of the test compound was calculated by setting the tumor volume on the day before the administration started as 0% regression, and the tumor volume 0 as 100% regression.

[2] = system: NCI-H1373 cells; assay: Anchorage-independent cell proliferation inhibitory action, NCI-H1373 spheroid three-dimensional culture; type: cell-based, Human; conditions: read-out: IC50 (anchorage-independent cell proliferation inhibition)
Method in brief: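 KRAS G12C NCI-H1373 cells were grown as spheroids in low-attachment U-bottom wells and treated the next day with compound, six points from 1,000 to 0.3 nM final. After six days at 37°C, viability was read by CellTiter-Glo luminescence. IC50 was fitted by Sigmoid-Emax regression, with DMSO set as 0% and cell-free medium as 100% inhibition.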

[3] = target: T1, KRAS G12C/SOS/c-Raf complex (Homo sapiens, UniProt P01116, G12C); assay: KRAS G12C/SOS/c-Raf complex formation inhibitory action (TR-FRET); type: biochemical; conditions: one hour at room temperature, read-out: IC50 (KRAS G12C/SOS/c-Raf complex formation inhibition)
T1 construct: Biotinylated AviTag-KRAS G12C (amino acid region 1-185, GDP)
T1 sequence (P01116 1-185 isoform P01116-2 G12C, one chain of several): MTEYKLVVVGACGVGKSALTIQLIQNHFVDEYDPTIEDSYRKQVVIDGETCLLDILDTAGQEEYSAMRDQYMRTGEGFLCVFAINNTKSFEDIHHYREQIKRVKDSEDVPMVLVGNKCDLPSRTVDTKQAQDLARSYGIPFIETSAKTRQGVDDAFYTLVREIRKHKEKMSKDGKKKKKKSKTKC
Method in brief: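 Biotin-AviTag KRAS G12C (1-185, GDP-bound) was mixed with compound (4,000 to 4 nM stock dilutions), SOS (564-1049), GST-c-Raf (51-131) and GTP in pH 7.4 HEPES/NaCl/MgCl2/Tween buffer for 1 h at room temperature. Complex formation was read by TR-FRET with Eu-streptavidin and ULight-anti-GST (ex 337 nm, em 620/665 nm).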

[4] = NCI-H1373 spheroid, six days, CellTiter Glo
[5] = Homo sapiens, NCI-H1373, 144 h, NCI-H1373 spheroid, six days, CellTiter Glo

SMILES | IC50 [2, 4] | IC50 [3] | IC50 [2, 5] | Antitumor effect: tumor regression rate [1] | IC50 ([2]; Homo sapiens, NCI-H1373, 144 h)
C=CC(=O)N1CC2(CCN(c3nc(OC4CCN(CCOC)CC4)nc4c(OCC(F)(F)F)c(-c5c(C)ccc6[nH]ncc56)c(C5CC5)cc34)CC2)C1 [Example 35] | 2.5 nM | 17 nM |  | 72% regression | 
C=CC(=O)N1CCN(c2nc(OC3CCN(C)CC3)nc3c(F)c(-c4c(C)ccc5[nH]ncc45)c(Cl)cc23)CC1 [Compound C, reference compound] |  | 68 nM | 320 nM |  | 
C=CC(=O)N1CC2(CCN(c3nc(OC4CCN(C)CC4)nc4c(OCC(F)F)c(-c5c(C)ccc6[nH]ncc56)c(C5CC5)cc34)CC2)C1 [Ex 3] |  | 29 nM | 4.7 nM |  | 
C=CC(=O)N1CC2(CCN(c3nc(N4CC(N(C)C)C4)nc4c(OCC(F)(F)F)c(-c5c(C)ccc6[nH]ncc56)c(C=C)cc34)CC2)C1 [Example 65] |  | 46 nM | 27 nM |  | 
C=CC(=O)N1CC2(CCN(c3nc(OC[C@@H]4CCCN4C)nc4c(OC5CCC5)c(-c5c(C)ccc6[nH]ncc56)c(C=C)cc34)CC2)C1 [Example 15] |  | 52 nM |  |  | 14 nM
C=CC(=O)N1CC2(CCN(c3nc(OC4CCN(CCCOC)CC4)nc4c(OCC(F)(F)F)c(-c5c(C)ccc6[nH]ncc56)c(C5CC5)cc34)CC2)C1 [Ex 28] |  | 38 nM |  |  | 
C=CC(=O)N1CC2(CCN(c3nc(OC4CCN(CCOCC)CC4)nc4c(OCC(F)(F)F)c(-c5c(C)ccc6[nH]ncc56)c(C=C)cc34)CC2)C1 [Example 37] | 8.8 nM | 17 nM |  | 58% regression | 
C=CC(=O)N1CC2(CCN(c3nc(OC4CCN(C5COC5)CC4)nc4c(OCC(F)(F)F)c(-c5c(C)ccc6[nH]ncc56)c(C=C)cc34)CC2)C1 [Example 33] |  | 44 nM | 8.7 nM |  | 
C=CC(=O)N1CC2(CCN(c3nc(OC[C@@H]4CCCN4C)nc4c(OCC(F)F)c(-c5c(C)ccc6[nH]ncc56)c(C5CC5)cc34)CC2)C1 [Ex 4] |  | 35 nM | 3.4 nM |  | 
C=CC(=O)N1CC2(CCN(c3nc(OC[C@@H]4CCCN4C)nc4c(OCC)c(-c5c(C)ccc6[nH]ncc56)c(C=C)cc34)CC2)C1 [Example 16] |  | 45 nM |  |  | 10 nM
C=CC(=O)N1CC2(CCN(c3nc(OC4CCN(C)CC4)nc4c(OCC)c(-c5c(C)ccc6[nH]ncc56)c(C5CC5)cc34)CC2)C1 [Ex 2] |  | 37 nM | 6.2 nM |  | 
C=CC(=O)N1CC2(CCN(c3nc(OC4CCN(CCOC)CC4)nc4c(OCC(F)(F)F)c(-c5c(C)ccc6[nH]ncc56)c(C5CC5)cc34)CC2)C1 [Ex 25] |  | 48 nM |  |  | 
C=CC(=O)N1CC2(CCN(c3nc(OC4CCN(CC(C)(C)O)CC4)nc4c(OCC(F)(F)F)c(-c5c(C)ccc6[nH]ncc56)c(C=C)cc34)CC2)C1 [Example 40] | 5.1 nM | 15 nM |  | 15% regression | 

Further compounds by falling IC50 [3], results first:

IC50 [2, 4] | IC50 [3] | IC50 [2, 5] | SMILES | Antitumor effect: tumor regression rate [1] | IC50 ([2]; Homo sapiens, NCI-H1373, 144 h)
 | 63 nM | 21 nM | C=CC(=O)N1CC2(CCN(c3nc(OC4CCN(Cc5ccccn5)CC4)nc4c(OCC(F)(F)F)c(-c5c(C)ccc6[nH]ncc56)c(C=C)cc34)CC2)C1 [Example 56] |  | 
 | 56 nM | 16 nM | C=CC(=O)N1CC2(CCN(c3nc(OC4CCN(C)CC4F)nc4c(OCC(F)(F)F)c(-c5c(C)ccc6[nH]ncc56)c(C=C)cc34)CC2)C1 (stereo not drawn) [Example 52] |  | 
 | 50 nM | 16 nM | C=CC(=O)N1CC2(CCN(c3nc(N4CCN(C)CC4)nc4c(OCC(F)(F)F)c(-c5c(C)ccc6[nH]ncc56)c(C=C)cc34)CC2)C1 [Example 50] |  | 
 | 49 nM | 10 nM | C=CC(=O)N1CC2(CCN(c3nc(OC4CCN(CCOCC)CC4)nc4c(OCC(F)(F)F)c(-c5c(C)ccc6[nH]ncc56)c(C=C)cc34)CC2)C1 [Example 29] |  | 
 | 45 nM | 5.4 nM | C=CC(=O)N1CC2(CCN(c3nc(OC4CCN(C5CCOCC5)CC4)nc4c(OCC(F)(F)F)c(-c5c(C)ccc6[nH]ncc56)c(C=C)cc34)CC2)C1 [Ex 30] |  | 
 | 41 nM |  | C=CC(=O)N1CC2(CCN(c3nc(OC4CCN(CCOC)CC4)nc4c(OCC(F)(F)F)c(-c5c(C)ccc6[nH]ncc56)c(C=C)cc34)CC2)C1 [Ex 26] |  | 
 | 39 nM | 7.1 nM | C=CC(=O)N1CC2(CCN(c3nc(OC4CCN(CCOC)CC4)nc4c(OCC(F)F)c(-c5c(C)ccc6[nH]ncc56)c(C5CC5)cc34)CC2)C1 [Example 32] |  | 
 | 36 nM | 7.5 nM | C=CC(=O)N1CC2(CCN(c3nc(OC4CCN(C5COC5)CC4)nc4c(OCC)c(-c5c(C)ccc6[nH]ncc56)c(C5CC5)cc34)CC2)C1 [Example 34] |  | 
 | 33 nM | 11 nM | C=CC(=O)N1CC2(CCN(c3nc(OC4CCN(CC)CC4)nc4c(OCC)c(-c5c(C)ccc6[nH]ncc56)c(C=C)cc34)CC2)C1 [Ex 7] |  | 
 | 21 nM | 6.1 nM | C=CC(=O)N1CC2(CCN(c3nc(OC4CCN(C)CC4)nc4c(OCC)c(-c5c(C)ccc6[nH]ncc56)c(C=C)cc34)CC2)C1 [Ex 24] |  | 
 | 14 nM | 4.3 nM | C=CC(=O)N1CC2(CCN(c3nc(OC4CCN(C5CCOCC5)CC4)nc4c(OCC(F)(F)F)c(-c5c(C)ccc6[nH]ncc56)c(C=C)cc34)CC2)C1 (single isomer, unassigned) [Ex 39] |  | 

From US10774082B2, “Quinazoline compound” (Astellas Pharma Inc., priority 2017, dated 2020)
